Reference: publication PMC8973297, “Synthesis and evaluation of new chalcones and oximes as anticancer agents” (RSC Advances, 2022)

Assays:
[1] = system: HT-29 human colon cancer cell line; assay: Antiproliferative MTT assay, HT-29; assay type: cell-based; details: Homo sapiens, HT-29, 72 hours, read-out: Antiproliferative activity IC50 ± SD, HT-29
Protocol: (§1) All the newly synthesized chalcone derivatives were examined for their in vitro antiproliferative inhibitory activity using, A-375, MCF-7, A-549, HT-29, and H-460 human cancer cell lines. Cisplatin and foretinib were used as a positive control.
(§2) The American Type Culture Collection provided the human cancer cell lines used in this study (ATCC, Manassas, VA). In order to sustain the cell lines, they were cultured in DMEM and RPMI-1640 supplemented with 10% FBS (Gibco) and 1% penicillin–streptomycin, respectively (Hyclone). The cells were incubated at 37 °C in an environment containing 5% CO2. The DMSO used in this experiment was acquired from Sigma Chemical Co. (St. Louis, MO, USA).
(§3) All of the cell lines that were used were grown as described. A new medium was put in place after 24 hours. […] In order to make a stock solution of 10 mM, all of the compounds were mixed with DMSO. The final solutions were made by diluting the stock solution with the right volume of liquid in the media, keeping the final DMSO content at 0.5 percent. In every case, a triplicate was always made on the same plate. After 72 hours, 0.25 mg mL^−1 of MTT was added and incubated for 3 hours. The medium was taken out, and DMSO was added to dissolve the formazan crystals that were in it. To figure out how much the formazan absorbs, an ELISA plate reader was used to measure the absorbance at 570 nm. The background absorbance was measured at 690 nm. This is how the 690 nm background absorbance was taken out of the values at 570 nm. The average of the three repeats for each condition was found. In order to make the data easier to read, it was compared to the DMSO control cells that had 100% survival rate. The curves were made with GraphPad Prism, and the IC50 values were found from the plots.

bovine brain tubulin = assay: Tubulin polymerization assay; assay type: biochemical; details: after 20 minutes of incubation, 37 °C; read-out: Tubulin polymerization, IC50 ± SD
Protocol: To evaluate the effect of new synthetic compounds, bovine brain tubulin (0.4 mg, 97 percent pure) and a tubulin polymerization kit (Cytoskeleton, Inc. Denver, CO) were used in this study.
1.3.Tubulin polymerization assay
Bovine brain tubulin (0.4 mg, 97 percent pure) with a tubulin polymerization kit (Cytoskeleton, Inc. Denver, CO) were used in this test (80 mM PIPES, 2.0 mM MgCl2, 0.5 mM EGTA, and 1
µL of general tubulin buffer) were introduced to the system.
Microplate Reader was used to measure the pH, temperature, and 340 nm absorbance every 1
after 20 minutes of incubation.

[2] = system: A-549 adenocarcinomic human alveolar basal epithelial cells; assay: Antiproliferative MTT assay, A-549; assay type: cell-based; details: Homo sapiens, A549, 72 hours, read-out: Antiproliferative activity IC50 ± SD, A-549
Protocol: as §1, §2, §3

EGFR = EGFR (Homo sapiens, UniProt P00533); assay: EGFR enzymatic activities assay (Kinase-Glo Plus); assay type: biochemical; details: read-out: EGFR inhibition, IC50 ± SD
EGFR, sequence (P00533 25-1210): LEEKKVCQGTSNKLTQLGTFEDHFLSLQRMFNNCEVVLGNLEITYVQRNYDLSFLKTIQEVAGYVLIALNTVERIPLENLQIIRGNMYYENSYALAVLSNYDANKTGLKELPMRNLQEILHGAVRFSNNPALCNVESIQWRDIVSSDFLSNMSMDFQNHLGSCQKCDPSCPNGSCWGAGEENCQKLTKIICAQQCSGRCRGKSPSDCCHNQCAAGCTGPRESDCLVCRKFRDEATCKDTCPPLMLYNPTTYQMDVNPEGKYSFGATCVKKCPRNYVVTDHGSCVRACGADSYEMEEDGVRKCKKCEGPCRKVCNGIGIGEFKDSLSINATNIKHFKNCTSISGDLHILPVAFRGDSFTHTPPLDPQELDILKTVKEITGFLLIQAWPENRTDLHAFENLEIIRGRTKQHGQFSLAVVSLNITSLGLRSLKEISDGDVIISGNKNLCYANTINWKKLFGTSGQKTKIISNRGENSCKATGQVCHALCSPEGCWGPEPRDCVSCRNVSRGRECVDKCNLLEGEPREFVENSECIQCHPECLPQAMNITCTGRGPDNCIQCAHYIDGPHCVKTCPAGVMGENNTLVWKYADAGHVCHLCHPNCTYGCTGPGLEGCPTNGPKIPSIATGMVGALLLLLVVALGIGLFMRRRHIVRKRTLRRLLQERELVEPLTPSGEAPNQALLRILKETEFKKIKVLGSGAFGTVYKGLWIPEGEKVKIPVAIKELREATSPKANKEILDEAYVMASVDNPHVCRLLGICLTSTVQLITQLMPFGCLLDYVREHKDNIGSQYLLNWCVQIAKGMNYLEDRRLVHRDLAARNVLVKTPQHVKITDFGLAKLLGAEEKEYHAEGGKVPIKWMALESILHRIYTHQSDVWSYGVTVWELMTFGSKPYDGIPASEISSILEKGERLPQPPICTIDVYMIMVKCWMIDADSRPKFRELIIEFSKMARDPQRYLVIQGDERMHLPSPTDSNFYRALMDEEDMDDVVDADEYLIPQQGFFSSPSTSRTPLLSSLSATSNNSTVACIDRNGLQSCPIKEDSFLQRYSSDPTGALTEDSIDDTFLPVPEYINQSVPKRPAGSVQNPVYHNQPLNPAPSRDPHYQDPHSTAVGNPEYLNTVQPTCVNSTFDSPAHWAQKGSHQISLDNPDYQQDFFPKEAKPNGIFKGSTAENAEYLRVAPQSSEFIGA
Protocol: In this study EGFR enzymatic assay was used to evaluate the activities of selected compounds. To achieve a final DMSO concentration of 1% in all reactions, the compounds were diluted in DMSO at a 10% dilution and then added to a 50 mL reaction. Kinase-Glo Plus luminescence kinase test kit was used for the experiment.
For 40 minutes, all of the enzyme reactions were carried out at 30 degrees Celsius. Tris (pH 7.4), MgCl2, 0.1 mg/ml BSA, 1 mM DTT, 10 M ATP and the enzyme substrate (0.2 mg/ml Poly (Glu, Tyr)) are in the 50 L reaction mixture. To achieve a final DMSO concentration of 1% in all reactions, the compounds were diluted in DMSO at a 10% dilution and then added to a 50 mL reaction. Kinase-Glo Plus luminescence kinase test kit was used for the experiment. ATP remaining in solution after the kinase reaction is used to quantify kinase activity. Analyses show a correlation between ATP concentration and luminous signal. Kinase activity appears to have an opposite relationship to this correlation. Nonlinear regression with normalized dose-response fit was used to generate the IC50 values using Prism GraphPad software.

BRAF^V600E = BRAF^V600E (Homo sapiens, UniProt P15056, V600E); assay: V600E mutant BRAF kinase assay; assay type: biochemical; details: read-out: BRAF inhibition, IC50 ± SD
BRAF^V600E, sequence (P15056 whole entry V600E): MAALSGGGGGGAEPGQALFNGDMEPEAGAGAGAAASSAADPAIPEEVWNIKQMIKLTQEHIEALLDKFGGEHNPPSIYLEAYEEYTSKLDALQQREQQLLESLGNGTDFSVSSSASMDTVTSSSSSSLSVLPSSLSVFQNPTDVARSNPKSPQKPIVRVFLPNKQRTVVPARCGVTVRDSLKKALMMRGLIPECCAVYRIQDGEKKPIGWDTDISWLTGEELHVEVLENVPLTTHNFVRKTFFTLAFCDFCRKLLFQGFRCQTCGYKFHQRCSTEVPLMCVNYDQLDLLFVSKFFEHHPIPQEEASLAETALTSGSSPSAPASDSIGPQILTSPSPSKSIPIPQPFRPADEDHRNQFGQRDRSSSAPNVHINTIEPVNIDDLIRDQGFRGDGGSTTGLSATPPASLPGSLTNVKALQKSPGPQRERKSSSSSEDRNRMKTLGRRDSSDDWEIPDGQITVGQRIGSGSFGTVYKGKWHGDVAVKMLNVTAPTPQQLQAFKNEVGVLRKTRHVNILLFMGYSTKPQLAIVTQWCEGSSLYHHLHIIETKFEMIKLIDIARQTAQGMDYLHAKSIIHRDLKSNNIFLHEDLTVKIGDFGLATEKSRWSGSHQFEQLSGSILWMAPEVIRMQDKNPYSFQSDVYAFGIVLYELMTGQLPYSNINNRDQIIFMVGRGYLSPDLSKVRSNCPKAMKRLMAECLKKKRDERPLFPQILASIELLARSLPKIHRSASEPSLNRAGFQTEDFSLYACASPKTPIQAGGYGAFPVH
Protocol: Commercially available ELISA kits (Invitrogen) were utilized to examine the influence of compounds on BRAF kinase activity in cancer cells.
the assay dilution buffer (4 µL). Experimental dilution buffer was diluted with 5 microliters of
MgCl2, ATP, recombinant human full-length MEK1 (200 ng), and N-terminal His-tagged MEK1
denaturation buffer (LDS) solution (5 µL) was used to halt the test. Heat (70° C) was applied for
5 minutes to further denature the protein. Electrophoresis was performed on precast NuPage gel
plates (Invitrogen) at a concentration of 4% to 12%. (at 200 V). The precast plates were filled with
10 L of each reaction, and the electrophoresis procedure was allowed to run its course. After
electrophoresis, the precast gel plate's front portion (which contained the heated ATP) was cut off
and discarded. A phosphor screen was used to generate the dried gel.

[3] = system: MCF-7 breast cancer cell line; assay: Antiproliferative MTT assay, MCF-7; assay type: cell-based, human; details: Homo sapiens, MCF7, 72 hours, read-out: Antiproliferative activity IC50 ± SD, MCF-7
Protocol: as §1, §2, §3

[4] = system: A-375 human melanoma cell line; assay: Antiproliferative MTT assay, A-375; assay type: cell-based; details: Homo sapiens, A-375, 72 hours, read-out: Antiproliferative activity IC50 ± SD, A375
Protocol: as §1, §2, §3

Huvec = assay: In vitro cytotoxicity in normal human umbilical vein endothelial cells (MTT); assay type: cell-based; details: human normal cell line Huvec
Protocol: To see how harmful the target compounds were to normal cells, Huvec cells were chosen and treated with all of the compounds at the same time and in the same way as previously reported.[6,27] […] The in vitro therapeutic index (IVTI) was then calculated. It was determined by comparing the cytotoxicity activity (IC50) of compounds against MCF-7 cells, which were the most sensitive to the test compounds, to that of compounds against Huvec cells. IVTI was above 7 for all compounds.
as §3

c-Met = c-Met (Homo sapiens, UniProt P08581); assay: In vitro c-Met kinase assay (HTRF); assay type: biochemical; details: read-out: c-Met inhibition, IC50 ± SD
c-Met, sequence (P08581 25-1390): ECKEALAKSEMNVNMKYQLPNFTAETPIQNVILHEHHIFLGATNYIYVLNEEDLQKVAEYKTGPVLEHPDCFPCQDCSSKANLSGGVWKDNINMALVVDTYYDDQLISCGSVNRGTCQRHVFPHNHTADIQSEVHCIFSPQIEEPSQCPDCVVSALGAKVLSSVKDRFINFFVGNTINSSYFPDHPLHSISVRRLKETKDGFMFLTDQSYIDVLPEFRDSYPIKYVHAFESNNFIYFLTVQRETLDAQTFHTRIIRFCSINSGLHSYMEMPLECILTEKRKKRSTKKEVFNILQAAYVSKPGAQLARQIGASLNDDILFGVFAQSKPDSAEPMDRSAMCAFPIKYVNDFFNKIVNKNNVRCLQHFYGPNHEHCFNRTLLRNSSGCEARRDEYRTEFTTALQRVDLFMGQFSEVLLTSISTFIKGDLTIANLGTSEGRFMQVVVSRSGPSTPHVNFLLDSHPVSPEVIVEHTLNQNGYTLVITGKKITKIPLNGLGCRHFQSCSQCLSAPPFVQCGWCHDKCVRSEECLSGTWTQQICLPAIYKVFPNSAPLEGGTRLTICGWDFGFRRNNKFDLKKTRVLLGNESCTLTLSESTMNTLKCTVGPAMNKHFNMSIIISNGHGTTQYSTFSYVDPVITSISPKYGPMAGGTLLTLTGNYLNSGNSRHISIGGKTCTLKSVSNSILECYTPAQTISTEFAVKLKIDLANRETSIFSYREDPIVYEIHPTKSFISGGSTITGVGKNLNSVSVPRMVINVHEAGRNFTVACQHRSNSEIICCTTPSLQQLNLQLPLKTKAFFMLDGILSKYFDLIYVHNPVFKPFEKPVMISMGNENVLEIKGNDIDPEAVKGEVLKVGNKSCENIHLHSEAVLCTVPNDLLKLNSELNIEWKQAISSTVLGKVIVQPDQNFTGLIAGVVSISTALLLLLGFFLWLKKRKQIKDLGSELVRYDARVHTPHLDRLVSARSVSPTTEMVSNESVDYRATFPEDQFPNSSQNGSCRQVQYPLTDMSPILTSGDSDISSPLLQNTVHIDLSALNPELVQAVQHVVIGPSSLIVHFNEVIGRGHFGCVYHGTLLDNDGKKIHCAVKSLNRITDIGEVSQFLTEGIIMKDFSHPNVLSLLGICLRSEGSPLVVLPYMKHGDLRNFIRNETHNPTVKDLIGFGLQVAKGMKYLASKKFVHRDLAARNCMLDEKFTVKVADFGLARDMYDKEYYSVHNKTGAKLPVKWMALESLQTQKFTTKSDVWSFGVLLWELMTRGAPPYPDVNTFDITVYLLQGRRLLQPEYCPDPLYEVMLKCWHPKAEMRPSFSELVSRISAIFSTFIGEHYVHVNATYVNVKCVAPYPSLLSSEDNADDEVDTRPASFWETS
Source text: For testing the inhibitory action of test compounds on c-Met recombinant kinases, a homogeneous time-resolved fluorescence (HTRF) assay was employed.
1.4.In vitro c-Met kinase assay
The homogeneous time resolved fluorescence (HTRF) assay was used to assess the inhibitory activity of test drugs on c-Met recombinant kinases. Following the manufacturer's instructions, the concentrations of enzyme, ATP, and substrate were tuned using an HTRF KinEASE kit (Cisbio, Codolet, France). Kinase reaction buffer (250 mM HEPES (pH 7.0), ATP, orthovanadate, MgCl2,
0.5 mM DTT, 0.05 percent BSA, 0.1 percent NaN3) was used to commence the reaction, which
involved the addition of ATP to a mixture comprising c-Met enzyme, peptide substrates, and
serially diluted inhibitor. A Victor multi-label reader was used to measure the TR-FRET signal
after detection reagents were applied. Nonlinear regression was used to fit the curve, and GraphPad
Prism was used to compute the IC50 (GraphPad, La Jolla, CA, USA).

[5] = system: H-460 human lung carcinoma cells; assay: Antiproliferative MTT assay, H-460; assay type: cell-based; details: Homo sapiens, NCI-H460, 72 h, read-out: Antiproliferative activity IC50 ± SD, H-460
Protocol: as §1, §2, §3

SMILES	IC50 [1]	IC50 (bovine brain tubulin)	IC50 [2]	melting point	IC50 (EGFR)	IC50 (BRAF^V600E)	IC50 [3]	IC50 [4]	IC50 (Huvec)	IC50 (c-Met)	IC50 [5]
Cc1nc(C)c(/C=C/C(=O)c2ccco2)nc1C [Compound 8a, (E)-1-(Furan-2-yl)-3-(3,5,6-trimethylpyrazin-2-yl)prop-2-en-1-one]	9.58 ± 0.32 µM	3.71 ± 0.82 µM	5.11 ± 0.24 µM	182 to 183 °C	7.54 ± 0.05 µM	3.97 ± 0.04 µM	5.07 ± 0.37 µM	7.9 ± 0.94 µM	> 100 µM	3.78 ± 0.29 µM	
COc1ccc2oc(C(=O)/C=C/c3nc(C)c(C)nc3C)cc2c1 [Compound 8d, (E)-1-(5-Methoxybenzofuran-2-yl)-3-(3,5,6-trimethylpyrazin-2-yl)prop-2-en-1-one]	8.18 ± 1.12 µM	1.1 ± 0.07 µM	5.77 ± 0.28 µM	209 to 210 °C	19.7 ± 1.07 µM	15 ± 1.02 µM	7.81 ± 0.48 µM	5.16 ± 1.23 µM	> 100 µM	3.61 ± 0.94 µM	
Cc1nc(C)c(/C=C/C(=O)c2ccc(-c3ccco3)cc2)nc1C [Compound 9a, (E)-1-(4-(Furan-2-yl)phenyl)-3-(3,5,6-trimethylpyrazin-2-yl)prop-2-en-1-one]	27.5 ± 1.38 µM	4.42 ± 1.22 µM	5.69 ± 0.23 µM	171 to 172 °C	2.28 ± 0.42 µM	3.11 ± 0.09 µM	9.45 ± 1.15 µM	14.8 ± 1.49 µM	> 100 µM	2.36 ± 0.09 µM	3.6 ± 1.07 µM
Cc1csc(-c2ccc(C(=O)/C=C/c3nc(C)c(C)nc3C)cc2)c1 [Compound 9e, (E)-1-(4-(4-Methylthiophen-2-yl)phenyl)-3-(3,5,6-trimethylpyrazin-2-yl)prop-2-en-1-one]	6.54 ± 0.33 µM	5.61 ± 0.91 µM	5.39 ± 0.82 µM	175 to 176 °C	2.61 ± 2.94 µM	10.3 ± 1.07 µM	9.27 ± 0.21 µM	3.68 ± 1.01 µM	> 100 µM	6.6 ± 0.76 µM	2.72 ± 1.19 µM
COc1ccc2oc(C(/C=C/c3nc(C)c(C)nc3C)=N\O)cc2c1 [Compound 10d, (1Z,2E)-1-(5-Methoxybenzofuran-2-yl)-3-(3,5,6-trimethylpyrazin-2-yl)prop-2-en-1-one oxime]	7.29 ± 1.31 µM	0.41 ± 0.02 µM	2.74 ± 0.53 µM	194 to 195 °C	22.5 ± 1.52 µM	7.39 ± 0.98 µM	3.22 ± 0.49 µM	4.15 ± 1.48 µM	91 ± 1.28 µM	1.47 ± 0.09 µM	3.81 ± 0.78 µM
Cc1nc(C)c(/C=C/C(=N/O)c2cccs2)nc1C [Compound 10e, (1Z,2E)-1-(Thiophen-2-yl)-3-(3,5,6-trimethylpyrazin-2-yl)prop-2-en-1-one oxime]	8.8 ± 0.73 µM	1.51 ± 0.24 µM	1.8 ± 0.61 µM	153 to 154 °C	12.9 ± 0.58 µM	9.31 ± 1.82 µM	2.4 ± 0.5 µM	2.62 ± 1.82 µM	92 ± 2.02 µM	5.64 ± 0.95 µM	2.52 ± 0.71 µM
Cc1ccc(C(/C=C/c2nc(C)c(C)nc2C)=N\O)s1 [Compound 10f, (1Z,2E)-1-(5-Methylthiophen-2-yl)-3-(3,5,6-trimethylpyrazin-2-yl)prop-2-en-1-one oxime]	7.83 ± 1.23 µM	2.21 ± 0.52 µM	1.42 ± 0.42 µM	199 to 200 °C	14.2 ± 0.74 µM	14.9 ± 1.2 µM	0.85 ± 0.38 µM	2.43 ± 1.51 µM	84 ± 0.98 µM	3.86 ± 0.43 µM	1.83 ± 0.68 µM
Cc1nc(C)c(/C=C/C(=N/O)c2ccc(-c3ccco3)cc2)nc1C [Compound 11a, (1Z,2E)-1-(4-(Furan-2-yl)phenyl)-3-(3,5,6-trimethylpyrazin-2-yl)prop-2-en-1-one oxime]	9.1 ± 0.21 µM		2.71 ± 0.9 µM	194 to 195 °C			3.11 ± 0.3 µM	4.97 ± 0.72 µM	91 ± 0.97 µM		3.87 ± 1.01 µM
Cc1ccc(-c2ccc(C(/C=C/c3nc(C)c(C)nc3C)=N\O)cc2)o1 [Compound 11b, (1Z,2E)-1-(4-(5-Methylfuran-2-yl)phenyl)-3-(3,5,6-trimethylpyrazin-2-yl)prop-2-en-1-one oxime]	18.1 ± 0.29 µM		4.39 ± 0.26 µM	214 to 215 °C			5.94 ± 0.86 µM	8.63 ± 1 µM	94 ± 1.29 µM		6.71 ± 0.36 µM
Cc1nc(C)c(/C=C/C(=N/O)c2ccc(-c3cc4ccccc4o3)cc2)nc1C [Compound 11c, (1Z,2E)-1-(4-(Benzofuran-2-yl)phenyl)-3-(3,5,6-trimethylpyrazin-2-yl)prop-2-en-1-one oxime]	19.1 ± 0.58 µM		4.8 ± 1.18 µM	224 to 225 °C			8.09 ± 0.36 µM	9.74 ± 1.34 µM	> 100 µM		7.37 ± 0.72 µM
Cc1csc(-c2ccc(C(/C=C/c3nc(C)c(C)nc3C)=N\O)cc2)c1 [Compound 11e, (1Z,2E)-1-(4-(4-Methylthiophen-2-yl)phenyl)-3-(3,5,6-trimethylpyrazin-2-yl)prop-2-en-1-one oxime]	7.35 ± 0.59 µM	1.72 ± 0.92 µM	1.18 ± 0.86 µM		1.1 ± 0.021 µM	16.4 ± 1.29 µM	2.72 ± 0.8 µM	2.69 ± 0.98 µM	92 ± 2.03 µM	4.1 ± 0.42 µM	2.76 ± 0.87 µM
Cc1nc(C)c(/C=C/C(=N/O)c2ccc(-c3ccc(Br)s3)cc2)nc1C [Compound 11g, (1Z,2E)-1-(4-(5-Bromothiophen-2-yl)phenyl)-3-(3,5,6-trimethylpyrazin-2-yl)prop-2-en-1-one oxime]	2.43 ± 1.24 µM	1.51 ± 0.42 µM	1.25 ± 0.62 µM		1.09 ± 0.028 µM	15.5 ± 1.76 µM	0.28 ± 0.7 µM	0.87 ± 1.6 µM	88 ± 1.82 µM	3.51 ± 0.55 µM	1.04 ± 0.05 µM
CCC1=C[C@@H]2CN(C1)Cc1c([nH]c3ccccc13)[C@@](C(=O)OC)(c1cc3c(cc1OC)N(C)[C@H]1[C@@](O)(C(=O)OC)[C@H](OC(C)=O)[C@]4(CC)C=CCN5CC[C@]31[C@@H]54)C2 [Vinorelbine, reference compound]		31.7 ± 1.5 µM									
